Here are results for 1 compound from patent publication US20240058365A1, “External Preparation for Treating Epilepsy or Autism Spectrum Disorder” (OSAKA UNIVERSITY, priority 2019, published 2024).

For data set [1], the system named is Tuberous sclerosis complex model mice. As to the kind of experiment: Test Example 5: number of epileptic seizures (intraperitoneal administration). Type of data set: in vivo. The note with it: intraperitoneal 3 mg/kg/day once a day for 7 days; observed 2 minutes 5 times per day; n=6. The method, then: FIG. 3 is a graph showing results obtained by intraperitoneally administering sirolimus (3 mg/kg/day) or saline to model mice and control mice (normal mice) once a day for 7 days (n=6 in each group). Homo represents tuberous sclerosis complex model mice, and Ct represents control mice (normal mice). *P<0.05, **P<0.01
Sirolimus (3 mg/kg/day) or a placebo (saline) was intraperitoneally administered to model mice and normal mice similar to those in Test Example 1 once a day for 7 days. The number of seizures was measured by observing the mice for 2 minutes 5 times per day (n=6 in each group). […] The number of seizures over 7 days in the group intraperitoneally administered sirolimus was about 5, which was nearly equal to the number of seizures in the case where the 0.2 wt % sirolimus gel was administered to the forehead once a day at 5 mg (10 μg in terms of sirolimus).

Data set [2] can be described thus: Test Example 6: blood concentration after 7-day intraperitoneal administration. Type of data set: in vivo, mice (C57BL/6J). To be noted: intraperitoneal 3 mg/kg/day for 7 days; 24 hours after the 7th administration; individual mice. On the procedure:
Sirolimus (3 mg/kg/day) or a placebo (saline) was intraperitoneally administered to mice (C57BL/6J, body weight: 20 g) once a day for 7 days. After 24 hours from the administration on the 7th day, blood was collected from each of the mice, and blood sirolimus concentration was measured.
(§1) The measurement of the blood concentration was performed by the same method as in Test Example 3. The blood concentration after the topical application to the skin was one 26th in terms of average value as compared to the blood concentration after systemic administration by the intraperitoneal administration. […] The action mechanism by which epileptic seizures are suppressed through systemic administration and the mechanism by which epileptic seizures are suppressed through topical application may differ from each other.

A short description of data set [3]: Test Example 6: blood concentration after 7-day topical application. It counts as in vivo, ICR mice. To be noted: 0.2 wt % sirolimus gel 5 mg (10 μg sirolimus) on shaved forehead once a day, 7 days; 24 hours after last; individual mice. On the procedure:
ICR mice (body weight: about 37 g) were obtained (Japan SLC, Inc.). The 0.2 wt % sirolimus gel prepared in Production Example 3 or a placebo (only the base) was applied to their shaved forehead once a day at 5 mg each (10 μg in terms of sirolimus). After 24 hours from the administration on the 7th day, blood was collected from each of the mice, and blood sirolimus concentration was measured.
as §1

The structures appear in SMILES notation. “And” between values parts separate entries of the source, which are not always exact repeats. Identical values can stand only once.

On to `CO[C@H]1C[C@@H]2CC[C@@H](C)[C@@](O)(O2)C(=O)C(=O)N2CCCC[C@H]2C(=O)O[C@H]([C@H](C)C[C@@H]2CC[C@@H](O)[C@H](OC)C2)CC(=O)[C@H](C)/C=C(\C)[C@@H](O)[C@@H](OC)C(=O)[C@H](C)C[C@H](C)/C=C/C=C/C=C/1C` [Sirolimus, sirolimus], for which, in data set [1], the “number of seizures over 7 days” value is “about 5”. In addition, the blood sirolimus concentration in data set [2] was 94.43 ng/ml · blood and 85.59 ng/ml · blood and 48.55 ng/ml · blood and 216.83 ng/ml · blood; in data set [3], 3.87 ng/ml · blood and 2.85 ng/ml · blood and 5.98 ng/ml · blood.
